{"source": "patent US20170128518A1", "about": "“METHODS AND MATERIALS FOR IDENTIFYING AND TREATING MAMMALS RESISTANT TO PROTEASOME INHIBITOR TREATMENTS” (Mayo Foundation for Medical Education and Research, priority 2014, published 2017)", "key": {"[1]": {"system": "MWCL-1 cells", "test": "MTS viability assay, MWCL-1", "format": "cell-based, human", "details": "72-h MTS assay", "procedure": "(§1) Twenty thousand cells/200 μl in quadruplicates were incubated with serially diluted b-AP15 (1-1000 nmol/l) in 96-well plates at 37° C. for 72 hours. MTS (3-(4,5-dimethylthiazol-2-yl)-5-(3-carboxymethoxyphenyl)-2-(4-sulfophenyl)-2H-tetrazolium) reagent (Molecular Probes, Eugene, Oreg.) was added at 40 μl/well and the plates were further incubated at 37° C. for 3 hours and the developed color was read at 490 nm using a BioTek synergy HT plate reader against blanks with no cells."}, "[2]": {"system": "MWCL-1/BR", "test": "MTS viability assay, MWCL-1/BR", "format": "cell-based, human", "details": "72-h MTS assay, MWCL-1B/BR", "procedure": "as §1"}, "[3]": {"system": "RPCI-WM1", "test": "MTS viability assay, RPCI-WM1", "format": "cell-based, human", "details": "72-h MTS assay", "procedure": "as §1"}, "[4]": {"system": "RPCI-WM1/BR", "test": "MTS viability assay, RPCI-WM1/BR", "format": "cell-based, human", "details": "72-h MTS assay", "procedure": "as §1"}, "[5]": {"molecular_target": "T1, 20S proteasome b5 subunit (Homo sapiens, UniProt P28074)", "T1 construct": "Cells were lysed at 4×10^6 cells/ml in proteasomal activity assay buffer; endogenous in cells; host or cells: BCWM.1, MWCL-1, RPCI-WM1 and their BR subclones (lysates)", "T1 sequence (P28074 60-263)": "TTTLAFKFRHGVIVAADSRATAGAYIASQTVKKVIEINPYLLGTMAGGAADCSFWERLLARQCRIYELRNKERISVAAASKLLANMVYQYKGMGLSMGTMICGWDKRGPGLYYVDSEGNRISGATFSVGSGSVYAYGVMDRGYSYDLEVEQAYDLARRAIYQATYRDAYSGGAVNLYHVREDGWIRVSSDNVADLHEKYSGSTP", "test": "Proteasomal activity assay, chymotrypsin-like (LLVY-AMC), WM cells", "format": "biochemical", "details": "10 nmol/l; WT and BR WM cells", "procedure": "FIGS. 10A and 10B are a series of graphs plotting the effect of b-AP15 treatment on 20S proteasome, b5-subunit (chymotrypsin-like) catalytic activity in WT and BR WM cells.\nCells were lysed at 4×10^6 cells/ml in proteasomal activity assay buffer [assay buffer; 25 mmol/1 HEPES buffer, pH7.5 containing 0.5 mmol/1 EDTA, 0.05% Nonidet P-40, 0.01% sodium dodecyl sulfate (SDS)] and immediately used in the assay. Enzyme reactions were performed in 96-well plates with 100 μl of final volume containing […] fluorogenic peptide substrates. The substrates used were LLVY-AMC for chymotrypsin like activity, LLE-AMC for caspase-like activity and LRR-AMC for trypsin-like activity. Reactions were incubated at 37° C. for 1 hour and fluorescence was measured at 360/460 using a BioTek synergy HT plate reader (BioTek, Winooski, Vt.)."}, "[6]": {"system": "WT and BR WM cells", "test": "Mitochondrial outer membrane permeability (TMRM), WM cell lines", "format": "cell-based, human", "procedure": "Cells were treated with different agents for 48 hours and assessed for MOMP using tetramethylrhodamine methyl ester [TMRM] (Life Technologies). TMRM was directly added to the cell cultures at 100 nmol/1 concentrations and incubated at 37° C. in the dark for 15 minutes. At the end of the incubation, cells were washed twice with cold PBS containing 2% FBS and analyzed. The cells were washed for fluorescence (FL2) and analyzed by BD Accuri, the C6 flow cytometer and its software. Data from at least 20,000 events per sample were collected and analyzed. TMRM-negative (%) cells were calculated to determine % MOMP."}, "[7]": {"system": "NF-κB reporter in HEK293 cells expressing MYD88 L265P", "test": "NF-κB luciferase reporter assay", "format": "cell-based, human", "details": "24 hours; 0.5 μmol/l", "procedure": "HEK293 cells expressing MYD88 L265P were generated as described elsewhere (Ansell et al., Blood Cancer J, 4:e183, 2014). Cells were transiently transfected with 0.5 ng Renilla and 0.25 μg of a pNFκB-luciferase reporter plasmid/1.0×10^6 cells. b-AP15 was added to each well at the indicated doses; after 24 hours, luciferase activity was measured in cell extracts and normalized against Renilla with the Dual Luciferase Kit (Promega, Madison, Wis.)."}, "[8]": {"system": "WM cells", "test": "Immunoblot analysis of WM cells", "format": "cell-based, human", "procedure": "Total protein extracts were made using radioimmunoprecipitation assay lysis buffer (50 mmol/1 Tris containing 150 mmol/1 NaCl, 0.1% SDS, 1% TritonX-100, 1% sodium deoxycholate, pH 7.2) with 0.2% protease and phosphatase inhibitor cocktail (Sigma, St. Louis, Mo.) on ice for 40 minutes, vortexing for 5 seconds every 10 minutes. Following centrifugation at 18,400 g for 20 minutes, the supernatant was collected and used for Western blot analyses. Protein content in the extracts was measured by bicinchoninic acid protein assay reagent. Aliquots of 20 μg of total protein were boiled in Laemmli sample buffer, loaded onto 10% SDS-PAGE gels, and transferred onto a nitrocellulose membrane. Membranes were blocked for 1 hour in TBS/Tween 20 [TTBS] containing 1% nonfat dried milk and 1% BSA. Incubation with primary antibodies was done overnight at 4° C., followed by washing 3× with TTBS and incubation for 1 hour with HRP-conjugated secondary antibody. The blots were developed using chemiluminescence (Thermo Scientific, Rockford, Ill.)."}}, "note": "Entries after “also recorded” stand apart in the source; their conditions may differ.", "data": [{"smiles": "C=CC(=O)N1C/C(=C\\c2ccc([N+](=O)[O-])cc2)C(=O)/C(=C/c2ccc([N+](=O)[O-])cc2)C1", "note": "[b-AP15]", "values": [{"measurement": "IC50", "setting": "[1]", "result": 7, "unit": "nM"}, {"measurement": "IC50", "setting": "[2]", "result": 3, "unit": "nM"}, {"measurement": "IC50", "setting": "[3]", "result": 16, "unit": "nM"}, {"measurement": "IC50", "setting": "[4]", "result": 57, "unit": "nM"}, {"measurement": "chymotrypsin-like activity (LLVY) of the b5 subunit", "setting": "[5]", "result": "did not alter chymotryptic activity; also recorded: no loss of the chymotrypsin-like activity"}, {"measurement": "MOMP", "setting": "[6]", "result": "significantly induced"}, {"measurement": "NF-κB luciferase reporter activity", "setting": "[7]", "result": "significantly reduced; also recorded: significant reduction"}, {"measurement": "BCL2 protein", "setting": "[8]", "result": "No change"}, {"measurement": "p-EIF2a expression", "setting": "[8]", "result": "did not appear to change"}, {"measurement": "phosphorylated MAPK14 (p38) protein", "setting": "[8]; 6-hour treatment", "result": "significant increase"}, {"measurement": "RELA nuclear protein levels", "setting": "[8]; 6 hours, BCWM.1 shown", "result": "marked reduction; also recorded: markedly reduced"}, {"measurement": "MYC total and nuclear expression", "setting": "[8]; BCWM.1", "result": "reduced total and nuclear expression"}, {"measurement": "EIF2AK3 (PERK) levels", "setting": "[8]; BR models", "result": "decreased EIF2AK3 levels"}, {"measurement": "USP14 and UCHL5 protein expression", "setting": "[8]; WM cell lines (WT and BR), 0.5 and 1 μmol/l", "result": "no observable shift"}, {"measurement": "PARP1 cleavage", "setting": "[8]; WM cell lines and primary WM tumor cells", "result": "confirming execution of apoptosis"}, {"measurement": "TP53 protein", "setting": "[8]; WT and BR WM cells", "result": "marginal increase"}, {"measurement": "HSPA1A protein", "setting": "[8]; all cell lines", "result": "further induced"}, {"measurement": "ERN1a, XBP1u and XBP1s protein", "setting": "[8]; all models tested", "result": "significantly induced"}, {"measurement": "total ubiquitinated cellular protein content", "setting": "[8]; dose-dependent", "result": "increasing amounts of high molecular weight polyubiquitinated conjugates"}, {"measurement": "USP14 and UCHL5 protein expression", "setting": "[8]; primary CD19+/CD138+ WM cells, 0.5 μmol/l", "result": "did not change"}, {"measurement": "p-MAPK3/MAPK1 (ERK1/2)", "setting": "[8]; wild type cell lines", "result": "increase"}]}]}
